Reference: US8383626B2, “Nitric oxide donors for inducing neurogenesis” (Henry Ford Health System, priority 1999, dated 2013)

What was measured:
[1] = tested on: neuronal progenitor cells in the SVZ and in the dentate gyrus; test: Proliferation of neuronal progenitor cells (BrdU immunoreactive cells) in ischemic adult rats (embolic MCA occlusion); assay type: in vivo, rat
Method: (§1) Two experiments were performed. In the first experiment, the effects of NO on the proliferation of neuronal progenitor cells in the SVZ and the dentate gyrus of non ischemic adult rats were examined. In the second experiment, the effects of NO on the proliferation of neuronal progenitor cells in the SVZ and in the dentate gyrus of ischemic adult rats were examined.
Based on above data, a second experiment was performed to explore NO effects on focal embolic cerebral ischemic brain. All procedures were the same as in the first experiment except for the following procedures.
Male Wistar rats (n=30) weighing 300-350 g were subjected to middle cerebral artery (MCA) occlusion. The MCA was occluded by placement of an embolus at the origin of the MCA. Briefly, a single intact fibrin rich 24 hour old homologous clot (about 1 μl) was placed at the origin of the MCA via a fifteen mm length of modified PE-50 catheter. The experimental protocol consisted of four groups. In Group I (control group), rats were subjected to MCA occlusion and received four consecutive intravenous bolus doses of saline (0.52 ml each, every fifteen minutes) at 24 hours after ischemia. Group II (DETNO/NO precondition) rats received four consecutive intravenous bolus doses of DETANONO (0.1 mg/kg each, every fifteen minutes, and total dose 0.4 mg/kg) at 24 hours before embolization. Group III (DETANONO two set group), animals received consecutive intravenous bolus doses of DETANONO (0.1 mg/kg each, every fifteen minutes and total dose 0.4 mg/kg) at 24 and 48 hours after occlusion. Group IV (DETANONO seven set group), animals received four consecutive intravenous bolus doses of DETANONO (0.1 mg/kg each, every fifteen minutes and total dose 0.4 mg/kg) at 24 hours after embolization. Subsequently, rats were intraperitoneally injected with DETA/NO at 0.4 mg/kg every day for six consecutive days.

[2] = tested on: neuronal progenitor cells in the SVZ and the dentate gyrus; test: Proliferation of neuronal progenitor cells (BrdU immunoreactive cell density) in non ischemic adult rats; assay type: in vivo, rat
Method: as §1
Male Wistar rats (n=28) weighing 300-350 g were anesthetized with halothane (1-3.5% in a mixture of 70% N2O and 30% O2) using a face mask. The rectal temperature was maintained at 37±1° C. throughout the surgical procedure using a feedback regulated water heating system. The right femoral artery and vein were cannulated with a PE-50 catheter for continuous monitoring of blood pressure and measurement of blood gases (pH, pO2, pCO2) and for drug administration, respectively. DETANONOate was intravenously and intraperitoneally injected to rats.
DETANONO treatment: Rats were randomly divided into four groups. Group 1 (single Rx), rats were intravenously injected with four consecutive bolus doses of DETANONO (0.1 mg/kg each) every fifteen minutes (total dose of 0.4 mg/kg). Group 2 (two Rx group), rats were intravenously injected with four consecutive bolus doses of DETANONO (0.1 mg/kg each) every fifteen minutes (total dose 0.4 mg/kg) and rats received a second treatment at 24 hours later. Group 3 (seven Rx group), rats received four consecutive intravenous bolus doses of DETANONO (0.1 mg/kg each) every fifteen minutes on the first experimental day and rats were intraperitoneally injected with a bolus dose of DETANONO (0.4 mg/kg) daily for an additional six consecutive days. Group 4 (control), rats received saline only (single dose).
Rats received an intraperitoneal injection of BrdU (50 mg/kg) on the first day of DETANONO treatment and daily intraperitoneal injections of BrdU for fourteen consecutive days. To determine whether the proliferation and the differentiation of cells in the SVZ and dentate gyrus of adult rats is affected by NO, rats were sacrificed at fourteen days (n=3-5 per group) and 42 days (n=3-5 per group) after first dose of DETANONO treatment, respectively. Rats were transcardially perfused with 4% paraformaldehyde in 100 mM phosphate buffer, pH 7.4. Brains were removed and fixed in 4% formaldehyde.
For BrdU immunostaining, DNA was first denatured by incubating brain sections (6 μm) in 50% formamide 2×SSC at 65° C. for 2 hours and then in 2N HCl at 37° C. for 30 minutes. Sections were then rinsed with Tris buffer and treated with 1% of H2O2 to block endogenous peroxidase. Sections were incubated with a primary antibody to BrdU (1:100) at room temperature for one hour and then incubated with biotinylated secondary antibody (1:200, Vector, Burlingame, Calif.) for one hour. Reaction product was detected using 3′3′-diaminobenzidine-tetrahydrochloride (DAB, Sigma).
BrdU immunostained sections were digitized under 40× objectively (Olympus BX40) via the MCID computer imaging analysis system (Imaging Research, St. Catharines, Canada). BrdU immunoreactive nuclei were counted on a computer monitor to improve visualization and in one focal plane to avoid over-sampling. Structures were sampled either by selecting predetermined areas on each section (RMS and OB) or by analyzing entire structures on each section (dentate gyrus and SVZ).
Every 40th coronal section was selected from each rat for a total of seven sections between AP+10.6 mm, genu corpus callosum, and AP+8.74 mm-anterior commissure crossing (Paxinos and Watson, 1986). BrdU immunoreactive-positive nuclei were counted in the lateral ventricle wall. All BrdU immunoreactive-positive nuclei in these areas are presented as the number of the BrdU immunoreactive cells/mm^2. Density for the seven sections was averaged to obtain a mean density value for each animal.
Every 20th section was selected from each rat for a total of six sections from the sagittal series of the OB/frontal cortex. […]

Question: With `NCCN(CCN)/[N+]([O-])=N/O` [DETANONO, DETANONOate] as the compound, how does the “BrdU immunoreactive cells in the OB” value ([1]; ischemic rats, 14 days and 42 days after MCA occlusion) read?
Answer: Significant increases

Question: And the “BrdU immunoreactive cells in dentate gyrus” value ([1]; ischemic rats, 14 days and 42 days, vs MCA occlusion group)?
Answer: significant increases

Question: What about the “numbers of BrdU immunoreactive cells in the SVZ” value (shortened to “numbers … in the SVZ”) ([1]; preconditioned group (24 hours before embolization), contralateral SVZ at 14 days, both SVZs at 42 days, vs non-treated MCA occlusion) of the same compound?
Answer: Significant (p<0.05) increases

Question: And the “BrdU immunoreactive cells in the SVZ” value ([1]; seven sets, contralateral and ipsilateral SVZ at 14 days and 42 days after MCA occlusion)?
Answer: significant increases

Question: What about the “numbers … in the SVZ” value ([1]; two dosage group (24 and 48 hours after occlusion), ipsilateral SVZ at 14 days, both SVZ at 42 days) of the same compound?
Answer: significant increase

Question: What about the “Density of newborn cells, Olfactory bulb” value ([2]; ONCE, 4 weeks after last BrdU injection (42 d), Contralateral) of the same compound?
Answer: 80 ± 12.3 cells per mm^2

Question: What about the “Density of newborn cells, Olfactory bulb” value ([2]; ONCE, 4 weeks after last BrdU injection (42 d), Ipsilateral) of the same compound?
Answer: 75.65 ± 10.85 cells per mm^2

Question: And the “Density of newborn cells, Rostral migratory stream” value (“Density … Rostral migratory stream” below) ([2]; ONCE, 4 weeks after last BrdU injection, Left side)?
Answer: 26.25 ± 6.9 cells per mm^2

Question: What about the “Density … Rostral migratory stream” value ([2]; ONCE, 4 weeks after last BrdU injection, Right side) of the same compound?
Answer: 22.5 ± 5.95 cells per mm^2

Question: What about the “Density of newborn cells, Olfactory bulb” value ([2]; ONCE, 1 day after last BrdU injection (14 d), Contralateral) of the same compound?
Answer: 39.75 ± 6.2 cells per mm^2

Question: What about the “Density of newborn cells, Olfactory bulb” value ([2]; ONCE, 1 day after last BrdU injection (14 d), Ipsilateral) of the same compound?
Answer: 41.4 ± 5.55 cells per mm^2

Question: What about the “Density … Rostral migratory stream” value ([2]; ONCE, 1 day after last BrdU injection (14 d), Left side) of the same compound?
Answer: 998.55 ± 59.7 cells per mm^2

Question: What about the “Density … Rostral migratory stream” value ([2]; ONCE, 1 day after last BrdU injection (14 d), Right side) of the same compound?
Answer: 950.25 ± 99.55 cells per mm^2

Question: What about the “Density of newborn cells, Olfactory bulb” value ([2]; TWICE, 4 weeks after last BrdU injection (42 d), Contralateral) of the same compound?
Answer: 98.4 ± 19.95 cells per mm^2

Question: And the “Density of newborn cells, Olfactory bulb” value ([2]; TWICE, 4 weeks after last BrdU injection (42 d), Ipsilateral)?
Answer: 85 ± 15.95 cells per mm^2

Question: What about the “Density … Rostral migratory stream” value ([2]; TWICE, 4 weeks after last BrdU injection, Left side) of the same compound?
Answer: 37.8 ± 5.15 cells per mm^2

Question: What about the “Density … Rostral migratory stream” value ([2]; TWICE, 4 weeks after last BrdU injection, Right side) of the same compound?
Answer: 32.9 ± 8.15 cells per mm^2

Question: What about the “Density of newborn cells, Olfactory bulb” value ([2]; TWICE, 1 day after last BrdU injection (14 d), Contralateral) of the same compound?
Answer: 99.6 ± 10.5 cells per mm^2

Question: What about the “Density of newborn cells, Olfactory bulb” value ([2]; TWICE, 1 day after last BrdU injection (14 d), Ipsilateral) of the same compound?
Answer: 91.65 ± 12.35 cells per mm^2

Question: What about the “Density … Rostral migratory stream” value ([2]; TWICE, 1 day after last BrdU injection (14 d), Left side) of the same compound?
Answer: 1070.85 ± 160.1 cells per mm^2

Question: And the “Density … Rostral migratory stream” value ([2]; TWICE, 1 day after last BrdU injection (14 d), Right side)?
Answer: 991 ± 98.25 cells per mm^2

Question: What about the “BrdU immunoreactive cells in OB” value ([2]; non ischemic rats, 42 days after a single set, fourteen and 42 days after two and seven sets, vs control) of the same compound?
Answer: significant increases

Question: What about the “number of BrdU immunoreactive cells in the SVZ, seven doses vs one and two doses” value ([2]; non ischemic rats, fourteen days after treatment) of the same compound?
Answer: highest number of BrdU immunoreactive cells

Question: What about the “numbers of BrdU immunoreactive cells in the RMS” value ([2]; non ischemic rats, fourteen days and 42 days after treatment) of the same compound?
Answer: did not significantly increase

Question: What about the “percentage of distribution of BrdU immunoreactive cells in the dentate gyrus” value ([2]; non ischemic rats, fourteen days and 42 days, vs control) of the same compound?
Answer: significantly decreases percentage of BrdU immunoreactive cells in subgranular zone and significantly increases in the granule layers

Question: What about the “numbers of BrdU immunoreactive cells in the dentate gyrus” value ([2]; non ischemic rats, single treatment, fourteen days and 42 days) of the same compound?
Answer: did not significantly increase

Question: And the “numbers of BrdU immunoreactive cells in the dentate gyrus” value ([2]; non ischemic rats, two and seven sets, fourteen days and 42 days, vs control)?
Answer: significant (p<0.01) increases

Question: And the “numbers … in the SVZ” value ([2]; non ischemic rats, vs saline at fourteen days and 42 days after treatment)?
Answer: significant (p<0.05) increase

Question: And the “Density of newborn cells, Olfactory bulb” value ([2]; × 7 TIMES, 4 weeks after last BrdU injection (42 d), Contralateral)?
Answer: 100.65 ± 19 cells per mm^2

Question: What about the “Density of newborn cells, Olfactory bulb” value ([2]; × 7 TIMES, 4 weeks after last BrdU injection (42 d), Ipsilateral) of the same compound?
Answer: 84.4 ± 7.1 cells per mm^2

Question: What about the “Density … Rostral migratory stream” value ([2]; × 7 TIMES, 4 weeks after last BrdU injection, Left side) of the same compound?
Answer: 47.5 ± 15.6 cells per mm^2

Question: And the “Density … Rostral migratory stream” value ([2]; × 7 TIMES, 4 weeks after last BrdU injection, Right side)?
Answer: 45 ± 11.35 cells per mm^2

Question: And the “Density of newborn cells, Olfactory bulb” value ([2]; × 7 TIMES, 1 day after last BrdU injection (14 d), Contralateral)?
Answer: 116.55 ± 16.45 cells per mm^2

Question: And the “Density of newborn cells, Olfactory bulb” value ([2]; × 7 TIMES, 1 day after last BrdU injection (14 d), Ipsilateral)?
Answer: 106.25 ± 17.7 cells per mm^2

Question: What about the “Density … Rostral migratory stream” value ([2]; × 7 TIMES, 1 day after last BrdU injection (14 d), Left side) of the same compound?
Answer: 1312.5 ± 265 cells per mm^2

Question: And the “Density … Rostral migratory stream” value ([2]; × 7 TIMES, 1 day after last BrdU injection (14 d), Right side)?
Answer: 1169.4 ± 218.85 cells per mm^2
